How the values were obtained:
[1] = target: T1, Acrosin (purified from boar sperm) (Sus scrofa, UniProt P08001); test: Acrosin inhibition in vitro (BAPNA substrate); assay type: biochemical; set-up: Inhibition (units/mg): dose or concentration left out as unconfirmed; details: for Inhibition (units/mg.): sodium salts; for Inhibition (units/mg): other salts
T1 construct: purified from boar sperm; from tissue; host or cells: boar sperm
Protocol: A control using the buffer solution without the test compound added is also run. A 200 μl-sample of the incubation mixture is then withdrawn and is added to a cuvette containing BAPNA (1 ml.) and triethanolamine buffer (2 ml.). The mixture is stirred and placed in a Gilford recording spectrophotometer. The increase in optical density at 383 nm is measured. One unit of acrosin activity is defined as the amount of acrosin which will cause an increase in optical density at 383 nm. of 0.001/minute. One unit of inhibitory activity is defined as the amount of inhibitor which will cause a reduction in the increase in optical density at 383 nm. of 0.001/minute.

[2] = target: T2, Testicular bovine hyaluronidase (Bos taurus, UniProt Q2YDK3); test: Hyaluronidase inhibition in vitro (chondroitin sulfate agar plate); assay type: biochemical; details: for inhibition at 1000 µg/mL: Conc. of Test Solution 1 mg/ml; for % Inhibition: Conc. of Test Sol. 10 mg/ml
T2 construct: purchased Sigma Chemical Company; host or cells: bovine testis
T2 sequence (Q2YDK3 36-553): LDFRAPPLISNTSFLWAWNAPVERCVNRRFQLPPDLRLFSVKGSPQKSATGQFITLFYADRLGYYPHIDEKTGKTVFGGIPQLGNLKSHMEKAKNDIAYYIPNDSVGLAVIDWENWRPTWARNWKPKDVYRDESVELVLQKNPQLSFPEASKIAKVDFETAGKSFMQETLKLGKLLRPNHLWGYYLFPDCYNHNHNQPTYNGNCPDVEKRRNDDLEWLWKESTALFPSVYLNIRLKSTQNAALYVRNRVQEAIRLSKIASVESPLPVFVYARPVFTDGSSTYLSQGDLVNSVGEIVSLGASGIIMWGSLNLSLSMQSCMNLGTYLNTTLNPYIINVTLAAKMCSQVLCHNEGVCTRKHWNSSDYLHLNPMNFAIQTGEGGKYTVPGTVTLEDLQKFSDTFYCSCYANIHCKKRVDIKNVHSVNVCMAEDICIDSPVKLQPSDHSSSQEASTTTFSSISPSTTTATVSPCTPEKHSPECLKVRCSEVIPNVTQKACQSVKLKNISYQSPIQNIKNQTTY
Protocol: The inhibition of hyaluronidase is assessed using chondroitin sulfate as the enzyme substrate according to the following procedure:
Agar plates containing chondroitin sulfate (0.1 percent) are prepared by the following method: water solutions of 1 percent agarose, 2 M sodium chloride (0.1 vol.), 1 M sodium acetate (pH 5.0, 0.1 vol), and sodium azide (0.5 mg./ml., 0.1 vol.) are mixed and the mixture is brought to the boiling temperature. […] After cooling to about 45° C., the resulting mixture (20 ml.) is poured onto a petri dish. The plates are allowed to cool to room temperature. A well 2 mm. in diameter is then cut in the agar surface. […] A control using only the buffer solution without added test compound is also run. The plates are then incubated overnight (about 16 hours) at 37° C. The zones of hydrolysis of chondroitin sulfate by hyaluronidase are visualized by flooding the plate with 10 percent cetyl trimethyl ammonium bromide. The area of the zone is logarithmically proportional to the concentration of hyaluronidase. Inhibitor activity is determined by comparing the area of hydrolysis from the test compound to the area of hydrolysis from the control. The results are expressed as percent inhibition calculated as follows: [formula]

[3] = sodium salts, Conc. of Test Solution 10 mg/ml
[4] = Conc. of Test Solution 10 Mg/ml

T1 sequence (P08001 40-338 limits assumed): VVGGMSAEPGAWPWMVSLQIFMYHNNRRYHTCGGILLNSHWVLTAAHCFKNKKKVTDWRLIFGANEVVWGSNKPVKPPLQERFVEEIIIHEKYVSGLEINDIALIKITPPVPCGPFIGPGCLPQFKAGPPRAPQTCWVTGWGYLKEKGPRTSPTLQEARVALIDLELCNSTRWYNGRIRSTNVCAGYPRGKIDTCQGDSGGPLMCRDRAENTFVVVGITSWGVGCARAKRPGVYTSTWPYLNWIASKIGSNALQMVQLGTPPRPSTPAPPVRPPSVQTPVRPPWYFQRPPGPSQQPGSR
T1 sequence (P08001 17-39 limits assumed): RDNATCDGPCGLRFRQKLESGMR

Row | Inhibition (units/mg.) ([1]; Conc. of Test Solution 1 Mg/ml) | inhibition at 1000 µg/mL ([2]; sodium salts) | SMILES | other results
1 | 132,000 units/mg. | 0% | CCCCCCCCCCC(CCCCCCCC)COS(=O)(=O)O (stereo not drawn) [2-octyldodecyl] | –
2 | 87,000 units/mg. | 100% | CCCCCCCCCCCCC(C)OS(=O)(=O)O (stereo not drawn) [2-tetradecyl] | –
3 | 29,000 units/mg. | 39% | CC(C)CCCC(C)CCCC(C)CCOS(=O)(=O)O (stereo not drawn) [3,7,11-trimethyldodecyl] | –
4 | 102,000 units/mg. | 0% | CCCCCCCCCCC(CCC)OS(=O)(=O)O (stereo not drawn) [4-tetradecyl] | –
5 | 90,000 units/mg. | 12% | CCCCCCCCC(CCCCC)OS(=O)(=O)O (stereo not drawn) [6-tetradecyl] | –
6 | 123,000 units/mg. | 0% | CCCCCCCCCC(CCCCCC)OS(=O)(=O)O (stereo not drawn) [7-hexadecyl] | –
7 | 112,000 units/mg. | 0% | CCCCCCCC(CCCCCC)OS(=O)(=O)O (stereo not drawn) [7-tetradecyl] | –
8 | 28,000 units/mg. | 0% | CCCCCCCCC(CCCCCCC)OS(=O)(=O)O (stereo not drawn) [8-hexadecyl] | –
9 | 148,000 units/mg. | 7% | CCCCCCCCCC(CCCCCCCC)OS(=O)(=O)O (stereo not drawn) [9-octadecyl] | –
10 | 172,000 units/mg. | 7% | CC(C)CCCCCCCCCCCOS(=O)(=O)O [12-methyltridecyl] | –
11 | – | – | CCCCCCCCCCCCOS(=O)(=O)O [CH3 (CH2)11 diethanolammonium] | Inhibition (units/mg) [1]: 90,000 units/mg; inhibition at 10000 µg/mL ([2]; 16 h, other salts, Conc. of Test Sol. 10 mg/ul): 100%
12 | – | – | CCCCCCCCCCCCCCOS(=O)(=O)O [CH3 (CH2)13 Ca] | Inhibition (units/mg) [1]: 48,000 units/mg; % Inhibition ([2]; other salts): 38%
13 | – | – | CCCCCCCCCCCCCCOS(=O)(=O)O [CH3 (CH2)13 K] | Inhibition (units/mg) [1]: 62,000 units/mg; % Inhibition ([2]; other salts): 27%
14 | – | – | CCCCCCCCCCCCCCOS(=O)(=O)O [CH3 (CH2)13 Li] | Inhibition (units/mg) [1]: 58,000 units/mg; % Inhibition ([2]; other salts): 27%
15 | – | – | CCCCCCCCCCCCCCOS(=O)(=O)O [CH3 (CH2)13 Mg] | Inhibition (units/mg) [1]: 59,000 units/mg; % Inhibition ([2]; other salts): 14%
16 | – | – | CCCCCCCCCCCCCCOS(=O)(=O)O [CH3 (CH2)13 NH4] | Inhibition (units/mg) [1]: 47,000 units/mg; % Inhibition ([2]; other salts): 14%

Row | Inhibition (units/mg.) ([1]; Conc. of Test Solution 1 Mg/ml) | inhibition at 1000 µg/mL ([2]; sodium salts) | SMILES | other results
17 | 210,000 units/mg. | 0% | CCCCC/C=C\C/C=C\CCCCCCCCOS(=O)(=O)O [linoleyl] | –
18 | 216,000 units/mg. | 13% | CCCC/C=C/CCCCCCCCOS(=O)(=O)O [myristeladyl] | –
19 | 160,000 units/mg. | 13% | CCCC/C=C\CCCCCCCCOS(=O)(=O)O [myristoleyl] | –
20 | 300,000 units/mg. | 0% | CCCCCCCCCCCCCCCCCCCCCCOS(=O)(=O)O [n-docosyl] | –
21 | – | – | CCCCCCCCCCCCOS(=O)(=O)[O-].[Na+] [n-dodecyl, Sodium lauryl sulfate] | inhibition at 10000 µg/mL [2, 3]: 71%
22 | – | – | CCCCCCCCCCCCCCCCCCCCOS(=O)(=O)O [n-eicosyl] | Inhibition (units/mg.) [1, 4]: 31,800 units/mg.; inhibition at 10000 µg/mL [2, 3]: 0%
23 | – | – | CCCCCCCCCCCOS(=O)(=O)O [n-hendecyl] | Inhibition (units/mg.) [1, 4]: 0 units/mg.; inhibition at 10000 µg/mL [2, 3]: 100%
24 | 100,000 units/mg. | 0% | CCCCCCCCCCCCCCCCCCCCCCCCCCCOS(=O)(=O)O [n-heptacosyl] | –
25 | – | – | CCCCCCCCCCCCCCCCCOS(=O)(=O)O [n-heptadecyl] | Inhibition (units/mg.) [1, 4]: 18,300 units/mg.; inhibition at 10000 µg/mL [2, 3]: 23%
26 | – | – | CCCCCCCCCCCCCCCCOS(=O)(=O)O [n-hexadecyl] | Inhibition (units/mg.) [1, 4]: 15,200 units/mg.; inhibition at 10000 µg/mL [2, 3]: 75%
27 | – | – | CCCCCCCCCCCCCCCCCCOS(=O)(=O)O [n-octadecyl] | Inhibition (units/mg.) [1, 4]: 26,000 units/mg.; inhibition at 10000 µg/mL [2, 3]: 30%
28 | – | – | CCCCCCCCCCCCCCCOS(=O)(=O)O [n-pentadecyl] | Inhibition (units/mg.) [1, 4]: 14,300 units/mg.; inhibition at 10000 µg/mL [2, 3]: 60%
29 | 123,000 units/mg. | 0% | CCCCCCCCCCCCCCCCCCCCCCCCOS(=O)(=O)O [n-tetracosyl] | –
30 | – | – | CCCCCCCCCCCCCOS(=O)(=O)O [n-tridecyl] | Inhibition (units/mg.) [1, 4]: 3,200 units/mg.; inhibition at 10000 µg/mL [2, 3]: 80%
31 | 152,000 units/mg. | 0% | CCCCCCCC/C=C\CCCCCCCCOS(=O)(=O)O [oleyl] | –
32 | 240,000 units/mg. | 0% | CC(C)CCCC(C)CCOS(=O)(=O)O (stereo not drawn) [tetrahydrogeranyl] | –

Source: US4264577A, “Contraceptive methods and compositions” (Eli Lilly and Company, priority 1980, dated 1981)
